Experimental data: article PMC3518395 (Nature communications, 2012)
Square brackets hold non-standard residues; d marks the D form.

Key:
αvβ3 = conditions: cited from earlier work
[1] = molecular target: integrin αvβ3 (Homo sapiens) (UniProt P06756); conditions: cited from earlier work
[2] = molecular target: T1, DNA:PNA-D5 (15 c(RGDfK) ligands) (also: 15 copies conjugated via PEG/squarate linker to LKγ-PNA:DNA scaffold); assay: 125I-echistatin competitive displacement on C32 cells
T1 chain: cyclo(RGD[dF]K)

Echistatin
echistatin association constant for binding to αvβ3 integrin (αvβ3; published value, fixed in the fit): 3.33e+09 M
Kd (αvβ3; read-out: Kd of echistatin for αvβ3): 0.3 nM

echistatin (from UniProt P17347)
Kd [1]: 0.3 nM

B1: integrin αvβ3 (protein)
chain 1: FNLDVDSPAEYSGPEGSYFGFAVDFFVPSASSRMFLLVGAPKANTTQPGIVEGGQVLKCDWSSTRRCQPIEFDATGNRDYAKDDPLEFKSHQWFGASVRSKQDKILACAPLYHWRTEMKQEREPVGTCFLQDGTKTVEYAPCRSQDIDADGQGFCQGGFSIDFTKADRVLLGGPGSFYWQGQLISDQVAEIVSKYDPNVYSIKYNNQLATRTAQAIFDDSYLGYSVAVGDFNGDGIDDFVSGVPRAARTLGMVYIYDGKNMSSLYNFTGEQMAAYFGFSVAATDINGDDYADVFIGAPLFMDRGSDGKLQEVGQVSVSLQRASGDFQTTKLNGFEVFARFGSAIAPLGDLDQDGFNDIAIAAPYGGEDKKGIVYIFNGRSTGLNAVPSQILEGQWAARSMPPSFGYSMKGATDIDKNGYPDLIVGAFGVDRAILYRARPVITVNAGLEVYPSILNQDNKTCSLPGTALKVSCFNVRFCLKADGKGVLPRKLNFQVELLLDKLKQKGAIRRALFLYSRSPSHSKNMTISRGGLMQCEELIAYLRDESEFRDKLTPITIFMEYRLDYRTAADTTGLQPILNQFTPANISRQAHILLDCGEDNVCKPKLEVSVDSDQKKIYIGDDNPLTLIVKAQNQGEGAYEAELIVSIPLQADFIGVVRNNEALARLSCAFKTENQTRQVVCDLGNPMKAGTQLLAGLRFSVHQQSEMDTSVKFDLQIQSSNLFDKVSPVVSHKVDLAVLAAVEIRGVSSPDHVFLPIPNWEHKENPETEEDVGPVVQHIYELRNNGPSSFSKAMLHLQWPYKYNNNTLLYILHYDIDGPMNCTSDMEINPLRIKISSLQTTEKNDTVAGQGERDHLITKRDLALSEGDIHTLGCGVAQCLKIVCQVGRLDRGKSAILYVKSLLWTETFMNKENQNHSYSLKSSASFNVIEFPYKNLPIEDITNSTLVTTNVTWGIQPAPMPV
chain 2: GPNICTTRGVSSCQQCLAVSPMCAWCSDEALPLGSPRCDLKENLLKDNCAPESIEFPVSEARVLEDRPLSDKGSGDSSQVTQVSPQRIALRLRPDDSKNFSIQVRQVEDYPVDIYYLMDLSYSMKDDLWSIQNLGTKLATQMRKLTSNLRIGFGAFVDKPVSPYMYISPPEALENPCYDMKTTCLPMFGYKHVLTLTDQVTRFNEEVKKQSVSRNRDAPEGGFDAIMQATVCDEKIGWRNDASHLLVFTTDAKTHIALDGRLAGIVQPNDGQCHVGSDNHYSASTTMDYPSLGLMTEKLSQKNINLIFAVTENVVNLYQNYSELIPGTTVGVLSMDSSNVLQLIVDAYGKIRSKVELEVRDLPEELSLSFNATCLNNEVIPGLKSCMGLKIGDTVSFSIEAKVRGCPQEKEKSFTIKPVGFKDSLIVQVTFDCDCACQAQAEPNSHRCNNGNGTFECGVCRCGPGWLGSQCECSEEDYRPSQQDECSPREGQPVCSQRGECLCGQCVCHSSDFGKITGKYCECDDFSCVRYKGEMCSGHGQCSCGDCLCDSDWTGYYCNCTTRTDTCMSSNGLLCSGRGKCECGSCVCIQPGSYGDTCEKCPTCPDACTFKKECVECKKFDRGALHDENTCNRYCRDEIESVKELKDTGKDAVNCTYKNEDDCVVRFQYYEDSSGKSILYVVEEPECPKGPD
Kd [2]: 0.16 nM
